US20220096614A1, “PEPTIDE-INDUCED NK CELL ACTIVATION” (University of Southampton, priority 2019, published 2022)

Tested on: KIR2DS2
Assay: KIR2DS2 tetramer staining of peptide-loaded 721.174 cells (flow cytometry)
Format: binding
Settings: 721.174 cells loaded with peptide; KIR2DS2 tetramer conjugated to phycoerythrin; no peptide 10503
Description: 721.174 cells were loaded with peptide and then stained using a tetramer of KIR2DS2 conjugated to phycoerythrin. Shown is a flow cytometry histogram plot of the staining of the 721.174 cells in the presence or absence of peptide. Mean fluorescence intensitites are indicated: 14811 for NAPLVHATL versus 10503 for no peptide.

KIR2DS2, sequence (P43631 22-245 limits assumed): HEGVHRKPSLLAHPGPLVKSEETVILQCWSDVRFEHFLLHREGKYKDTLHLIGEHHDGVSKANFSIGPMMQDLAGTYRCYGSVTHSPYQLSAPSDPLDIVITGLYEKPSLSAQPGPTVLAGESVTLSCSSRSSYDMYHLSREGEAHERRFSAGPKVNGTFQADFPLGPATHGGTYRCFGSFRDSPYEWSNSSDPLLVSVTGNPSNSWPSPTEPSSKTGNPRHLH
KIR2DS2, sequence (P10321 25-366, further chain): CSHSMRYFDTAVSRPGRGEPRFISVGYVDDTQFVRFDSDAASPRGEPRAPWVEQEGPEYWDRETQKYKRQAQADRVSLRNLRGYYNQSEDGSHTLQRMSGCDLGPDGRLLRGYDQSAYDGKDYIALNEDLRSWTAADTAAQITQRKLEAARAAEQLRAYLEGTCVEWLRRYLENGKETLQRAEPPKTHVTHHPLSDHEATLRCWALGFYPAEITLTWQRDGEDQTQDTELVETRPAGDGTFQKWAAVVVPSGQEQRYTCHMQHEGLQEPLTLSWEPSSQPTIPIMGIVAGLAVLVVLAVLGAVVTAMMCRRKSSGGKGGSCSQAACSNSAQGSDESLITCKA
KIR2DS2, sequence (P61769 21-119 partner): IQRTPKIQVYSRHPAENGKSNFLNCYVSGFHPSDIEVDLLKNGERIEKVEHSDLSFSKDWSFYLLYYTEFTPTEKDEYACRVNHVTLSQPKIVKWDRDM

NAPLVHATL [peptide derived from Exportin-1 (XPO1)]
Mean fluorescence intensity of KIR2DS2 tetramer staining: 14811
